≈ marks a conversion by molar mass, not a printed value.
Columns and labels:
[1] = test system: Androstenedione; assay: Phase 2 study in adults with classic CAH: Androstenedione; type: in vivo, human; conditions: patients with classic CAH
Excerpt: (§1) Cohort A of the Phase 2 Study includes a 6-week, multiple-dose, dose escalation study of Compound 1 for the treatment of adults with classic CAH. After screening, eligible patients will be enrolled into a 6-week treatment period followed by a 4-week washout/safety follow-up period.
(§2) This cohort will be conducted in approximately 9 patients, who will receive Compound 1 daily for up to 6 weeks. Compound 1 will be administered as an oral daily dose. Patients will undergo titration of Compound 1 through three escalating dosage strengths at 2-week intervals. Patients will have overnight PK/PD assessments performed at baseline, which include an pre-dose overnight assessment and a post-dose overnight assessment for PK/PD following administration of the first dose. At the end of each 2-week dosing period, patients will return for single overnight visits for steady-state PK/PD assessments. A follow-up outpatient visit will occur 30 days after their last dose. Upon completion of the initial cohort (Cohort A), the study will proceed to a multiple ascending dose (MAD) design with up to 3 sequential cohorts (Cohorts B, C, and D) to further evaluate the safety, PK, and PD of various SPR001 dosing regimens and to identify an optimal dose regimen. Each cohort will undergo a 2-week run-in period, a 2-week treatment period, and a 30-day washout and safety follow-up period. During the run-in period, which will occur during screening, subjects will document in a paper diary each dose of glucocorticoid medication taken, the time of each meal, and the time they went to bed and woke up each day, to ensure compliance with background glucocorticoid regimens and the stability of their daily routine.
(§3) • 3. To explore the dose(s) of Compound 1 that cause pharmacodynamics changes in plasma concentrations of ACTH, androstenedione, and testosterone, as measured by the absolute and percent change from baseline by dose. • 4. To determine pharmacokinetics of Compound 1 in subjects with CAH. • 5. To explore potential relationships between pharmacodynamics and pharmacokinetics. […]

[2] = test system: 17-OHP; assay: Phase 2 study in adults with classic CAH: 17-OHP; type: in vivo, human; conditions: patients with classic CAH
Excerpt: as §1, §2
• 1. To evaluate the safety of Compound 1 in subjects with CAH. • 2. To assess the efficacy of Compound 1 in subjects with classic CAH as measured by percent and absolute change in 17-OHP compared to baseline.
This allows for steroid taper. […] 50% of subjects were within the guideline range (1200 ng/dL) after treatment.

[3] = test system: ACTH; assay: Phase 2 study in adults with classic CAH: ACTH; type: in vivo, human; conditions: patients with classic CAH
Excerpt: as §1, §2, §3

[4] = Study 2 Part A: multiple-dose (14 days) pharmacokinetics in healthy adult volunteers; type: in vivo, human; conditions: for Cmax: fed; for Effective t1/2: half-life calculated by accumulation ratio; for Tmax: median; for WT-norm Claa/F: weight normalized
Description: (§4) The 2-part multiple-dose study, Study 2, determined the safety and tolerability of repeated daily doses of Compound 1 and investigated the effects on biomarkers of relevance for the treatment of alcohol dependence.
PK were also evaluated in the multiple-dose, dose-escalation study, Study 2. In Part A of the study, subjects were divided into 3 cohorts and received 50, 150, or 200 mg Compound 1 or placebo for 14 consecutive days (at least 6 subjects received Compound 1 and 2 subjects received placebo in each cohort). […] All dosing occurred in the fed state. An assessment of diurnal cortisol levels, plus when under conditions of glucose clamp, were also carried out both prior to and during the dosing period.
Consistent with the single-dose study (Study 1), concentrations appeared to decline in a bi-exponential manner, characterized by a rapid decrease within the first 24 hours. […] The Tmax appeared to be consistent across doses. Overall half-lives, weight normalized CL/F and V/F were consistent for 150 and 200 mg. However, the values for these latter 2 parameters were almost doubled at the 50-mg dose level. Variability (CV %) for apparent clearance and volume of distribution were large and not reduced with weight-normalization.
Table 8 presents the results of the dose proportionality assessment for the AUC0-24 and Cmax over the tested dose range.

[5] = Phase 1 safety and tolerability (Study 1 and Study 2); type: in vivo, human; conditions: healthy subjects
Excerpt: (§5) Study 1 was the first-in-human study that investigated the safety, tolerability, and PK of single-escalating doses of Compound 1, given orally, to healthy adult subjects. […] The data from this study were used for the selection of doses for Study 2.
as §4
The safety of Compound 1 was evaluated in 2 Phase 1 studies in healthy adult volunteers (Study 1 and Study 2). In both studies, adverse events (AEs), clinical laboratory tests, vital signs (supine blood pressure and pulse rate), and electrocardiograms (ECGs) were evaluated. Overall, in Study 1, Compound 1 was well-tolerated.

[6] = Phase 2 study in adults with classic CAH: safety; type: in vivo, human; conditions: patients with CAH, 5-fold range of doses
Excerpt: as §1
as §2, with “Each cohort will undergo a 2-week run-in period, a 2-week treatment period, and a 30-day washout and safety follow-up period. During the run-in period, which will occur during screening, subjects will document in a paper diary each dose of glucocorticoid medication taken, the time of each meal, and the time they went to bed and woke up each day, to ensure compliance with background glucocorticoid regimens and the stability of their daily routine.” left out
• 1. […] To assess the efficacy of Compound 1 in subjects with classic CAH as measured by percent and absolute change in 17-OHP compared to baseline. […]

[7] = Study 1: single-escalating oral dose pharmacokinetics in healthy adult subjects; type: in vivo, human; conditions: for Cmax / AUC0-tlast / AUC0-∞ / CL/F / t1/2: geometric mean
Description: as §5
In Study 1, Compound 1 was administered to healthy adult subjects as a single PO dose of 2, 10, 50, 150, 400, or 800 mg in the fed state and 150 mg in the fasted state. Absorption occurred moderately late, achieving peak Cmax between 4 to 6 hours following dosing in the fed state.
When Compound 1 was given in the fed state, median time to reach maximum plasma concentration (Tmax) occurred between 4 and 6 hours.
As part of this single-dose escalation study, a food effect PK investigation was performed to examine Compound 1 exposures in both the fed and fasted states at the 150-mg dose level. A total of 6 subjects were administered 150 mg Compound 1 in each of these 2 dosing groups. Of these 6 subjects, 4 subjects received Compound 1 at the same dose in both fed and fasted states. […] Table 6 provides a summary of the PK parameters at the 150-mg dose level under both fed and fasted state conditions.
PK parameters AUC0-∞ and Cmax were analyzed separately for dose proportionality for Compound 1 from 50 to 800 mg when administered in the fed state. […] Dose proportionality across administered doses in the fed state could not be concluded on the basis of AUC0-∞ or Cmax.

[8] = Solubility in different aqueous media (24 hour at room temperature); type: physicochemical
[9] = 50 mg daily, Day 14, geometric mean
[10] = 150 mg daily, Day 14, geometric mean
[11] = 200 mg daily, Day 14, geometric mean
[12] = single oral dose 150 mg, fasted

Cmax [4, 9]: 50.3 ng/mL | AUC0-24 h [4, 9]: 273 ng·h/mL | AUC0-∞ [4, 9]: 980 ng·h/mL | CLaa/F [4, 9]: 183 L/h | Cavg [4, 9]: 11.4 ng/mL | Effective t1/2 [4, 9]: 37.7 h | Tmax ([4]; 50 mg daily, Day 14): 5.00 h | WT-norm Claa/F [4, 9]: 48 mL/min/kg | RA (accumulation ratio, Day 14 AUC0-24/Day 1 AUC0-24) ([4]; 50 mg daily, geometric mean): 2.80 | Cmax ([4]; 50 mg, Day 1, geometric mean): 22.7 ng/mL | AUC0-24 h ([4]; 50 mg, Day 1, geometric mean): 97.6 ng·h/mL | Tmax ([4]; 50 mg, Day 1): 4.52 h | Cmax [4, 10]: 222 ng/mL | AUC0-24 h [4, 10]: 1480 ng·h/mL | AUC0-∞ [4, 10]: 4680 ng·h/mL | CLaa/F [4, 10]: 101 L/h | Cavg [4, 10]: 61.7 ng/mL | Effective t1/2 [4, 10]: 32.7 h | Tmax ([4]; 150 mg daily, Day 14): 5.00 h | WT-norm Claa/F [4, 10]: 23.7 mL/min/kg | RA (accumulation ratio, Day 14 AUC0-24/Day 1 AUC0-24) ([4]; 150 mg daily, geometric mean): 2.51 | Cmax ([4]; 150 mg, Day 1, geometric mean): 127 ng/mL | AUC0-24 h ([4]; 150 mg, Day 1, geometric mean): 590 ng·h/mL | Tmax ([4]; 150 mg, Day 1): 5.00 h | Cmax [4, 11]: 314 ng/mL | AUC0-24 h [4, 11]: 2040 ng·h/mL | AUC0-∞ [4, 11]: 5660 ng·h/mL | CLaa/F [4, 11]: 98 L/h | Cavg [4, 11]: 85.0 ng/mL | Effective t1/2 [4, 11]: 52.0 h | Tmax ([4]; 200 mg daily, Day 14): 5.00 h | WT-norm Claa/F [4, 11]: 25 mL/min/kg | RA (accumulation ratio, Day 14 AUC0-24/Day 1 AUC0-24) ([4]; 200 mg daily, geometric mean): 3.65 | Cmax ([4]; 200 mg, Day 1, geometric mean): 143 ng/mL | AUC0-24 h ([4]; 200 mg, Day 1, geometric mean): 559 ng·h/mL | Tmax ([4]; 200 mg, Day 1): 5.00 h | Vd/F at 14 days ([4]; human, plasma, oral, 50 mg daily, Day 14, geometric mean, read-out: Vz/F): 33500 L | increase of AUC0-∞ for every doubling of dose, relative to dose proportionality ([7]; 50 to 800 mg, fed state): 1.74 times | mean AUC0-∞, fed state relative to fasted state ([7]; 150-mg dose, fed vs fasted): approximately 3 fold | mean Cmax, fed state relative to fasted state ([7]; 150-mg dose, fed vs fasted): ~11 fold | half-life ([7]; human, plasma, single PO dose, fed and fasted state, overall range, read-out: half-life (t1/2), range): 11 to 101 h | Tmax ([7]; human, plasma, single oral dose 150 mg, fasted state, range, read-out: Tmax, range): 6 to 12 h | Tmax ([7]; single oral dose 2 mg, fed, median): 6.00 h | Cmax ([7]; single oral dose 2 mg, fed, plasma): 0.867 ng/mL | Tmax ([7]; single oral dose 10 mg, fed, median): 4.00 h | Cmax ([7]; single oral dose 10 mg, fed, plasma): 3.01 ng/mL | AUC0-tlast ([7]; single oral dose 50 mg, fed): 152 ng·h/mL | AUC0-∞ ([7]; single oral dose 50 mg, fed): 165 ng·h/mL | CL/F ([7]; single oral dose 50 mg, fed): 302 L/h | t1/2 ([7]; single oral dose 50 mg, fed): 31 h | Tmax ([7]; single oral dose 50 mg, fed, median): 4.00 h | Cmax ([7]; single oral dose 50 mg, fed, plasma): 19.5 ng/mL | AUC0-tlast [7, 12]: 288 ng·h/mL | AUC0-∞ [7, 12]: 331 ng·h/mL | CL/F [7, 12]: 454 L/h | t1/2 [7, 12]: 38.4 h | Tmax ([7]; single oral dose 150 mg, fasted, median): 10.05 h | Cmax ([7]; single oral dose 150 mg, fasted, plasma): 8.22 ng/mL | AUC0-tlast ([7]; single oral dose 150 mg, fed): 891 ng·h/mL | AUC0-∞ ([7]; single oral dose 150 mg, fed): 956 ng·h/mL | CL/F ([7]; single oral dose 150 mg, fed): 157 L/h | t1/2 ([7]; single oral dose 150 mg, fed): 29.2 h | Tmax ([7]; single oral dose 150 mg, fed, median): 4.00 h | Cmax ([7]; single oral dose 150 mg, fed, plasma): 93.4 ng/mL | AUC0-tlast ([7]; single oral dose 400 mg, fed): 2300 ng·h/mL | AUC0-∞ ([7]; single oral dose 400 mg, fed): 2580 ng·h/mL | CL/F ([7]; single oral dose 400 mg, fed): 155 L/h | t1/2 ([7]; single oral dose 400 mg, fed): 44.2 h | Tmax ([7]; single oral dose 400 mg, fed, median): 4.00 h | Cmax ([7]; single oral dose 400 mg, fed, plasma): 207 ng/mL | AUC0-tlast ([7]; single oral dose 800 mg, fed): 4390 ng·h/mL | AUC0-∞ ([7]; single oral dose 800 mg, fed): 4850 ng·h/mL | CL/F ([7]; single oral dose 800 mg, fed): 165 L/h | t1/2 ([7]; single oral dose 800 mg, fed): 41.9 h | Tmax ([7]; single oral dose 800 mg, fed, median): 6.00 h | Cmax ([7]; single oral dose 800 mg, fed, plasma): 382 ng/mL | Solubility Description ([8]; 0.001N HCl, equilibrium pH 3.36): Insoluble | Solubility Description ([8]; 0.01N HCl, equilibrium pH 2.06): Insoluble | Solubility Description ([8]; 0.1N HCl, equilibrium pH 1.06): insoluble | Solubility Description ([8]; 0.1N NaOH, equilibrium pH 11.65): Insoluble | Solubility Description ([8]; FaSSIF, equilibrium pH 5.16): insoluble | Solubility Description ([8]; FaSSIF, equilibrium pH 6.73): Insoluble | Solubility Description ([8]; SGF, equilibrium pH 2.25): Insoluble | Solubility Description ([8]; Water, equilibrium pH 7.78): insoluble | Solubility Description ([8]; pH 4.5 Acetate (USP), equilibrium pH 4.65): Insoluble | Solubility Description ([8]; pH 6.0 Phosphate (USP), equilibrium pH 6.08): Insoluble | Solubility Description ([8]; pH 7.5 Phosphate (USP), equilibrium pH 7.57): Insoluble | Solubility ([8]; pH 7.5 Phosphate (USP), equilibrium pH 7.57, n = 2, 24 hour, room temperature): 0.6 µg/mL (≈ 1.43 µM) | solubility at 24 h ([8]; water, thermodynamic from solid): < 2 µg/mL
SMILES: CCC(CC)c1cc(C)nc2c(-c3sc(N4CCOCC4)nc3Cl)c(C)nn12 [Compound 1, 3-(4-Chloro-2-(morpholin-4-yl)thiazol-5-yl)-7-(1-ethylpropyl)-2,5-dimethylpyrazolo(1,5-a)pyrimidine]
subjects with more than 25% reduction in Androstenedione [1]: 60% | subjects within normal reference range (Androstenedione) after treatment [1]: 50% | subjects with reduction in Androstenedione ([1]; at various doses): 100% | subjects with more than 25% reduction in 17-OHP [2]: 50% | subjects with reduction in 17-OHP [2]: 80% | subjects within the guideline range (1200 ng/dL) of 17-OHP after treatment [2]: 50% | subjects in the normal range (ACTH) after treatment [3]: 40% | subjects with more than 25% reduction in ACTH [3]: 70% | subjects with reduction in ACTH [3]: 80% | tolerability ([5]; Study 1, single oral doses up to 800 mg): well-tolerated | tolerability ([5]; Study 2, multiple doses up to 200 mg): generally well tolerated | tolerability [6]: generally well-tolerated

Reference: US20210137935A1, “CORTICOTROPIN RELEASING FACTOR RECEPTOR ANTAGONISTS” (Spruce Biosciences, Inc., priority 2017, published 2021)
